Experimental data reported in patent publication EP4813991A1 (iLeadBMS Co., Ltd., priority 2023, dated 2025).
pIC50: −log10 of the molar value. Read-outs that look alike come from different tables or passages of the source.

Assays:
CDK12 [1] = biological target: T1, CDK12 (Homo sapiens, UniProt Q9NYV4); experiment: Cellular CDK12 inhibitory activity assay (Ser2 phosphorylation of RNA polymerase II subunit B1 CTD in MDA-MB-231 cells); type: cell-based; set-up: using MDA-MB-231 breast cancer cells; endogenous in cells; host or cells: MDA-MB-231; settings: MDA-MB-231 cells, 6 hours treatment; read-out: pRpbl CTD S2 IC50
T1 sequence (Q9NYV4 whole entry, species assumed): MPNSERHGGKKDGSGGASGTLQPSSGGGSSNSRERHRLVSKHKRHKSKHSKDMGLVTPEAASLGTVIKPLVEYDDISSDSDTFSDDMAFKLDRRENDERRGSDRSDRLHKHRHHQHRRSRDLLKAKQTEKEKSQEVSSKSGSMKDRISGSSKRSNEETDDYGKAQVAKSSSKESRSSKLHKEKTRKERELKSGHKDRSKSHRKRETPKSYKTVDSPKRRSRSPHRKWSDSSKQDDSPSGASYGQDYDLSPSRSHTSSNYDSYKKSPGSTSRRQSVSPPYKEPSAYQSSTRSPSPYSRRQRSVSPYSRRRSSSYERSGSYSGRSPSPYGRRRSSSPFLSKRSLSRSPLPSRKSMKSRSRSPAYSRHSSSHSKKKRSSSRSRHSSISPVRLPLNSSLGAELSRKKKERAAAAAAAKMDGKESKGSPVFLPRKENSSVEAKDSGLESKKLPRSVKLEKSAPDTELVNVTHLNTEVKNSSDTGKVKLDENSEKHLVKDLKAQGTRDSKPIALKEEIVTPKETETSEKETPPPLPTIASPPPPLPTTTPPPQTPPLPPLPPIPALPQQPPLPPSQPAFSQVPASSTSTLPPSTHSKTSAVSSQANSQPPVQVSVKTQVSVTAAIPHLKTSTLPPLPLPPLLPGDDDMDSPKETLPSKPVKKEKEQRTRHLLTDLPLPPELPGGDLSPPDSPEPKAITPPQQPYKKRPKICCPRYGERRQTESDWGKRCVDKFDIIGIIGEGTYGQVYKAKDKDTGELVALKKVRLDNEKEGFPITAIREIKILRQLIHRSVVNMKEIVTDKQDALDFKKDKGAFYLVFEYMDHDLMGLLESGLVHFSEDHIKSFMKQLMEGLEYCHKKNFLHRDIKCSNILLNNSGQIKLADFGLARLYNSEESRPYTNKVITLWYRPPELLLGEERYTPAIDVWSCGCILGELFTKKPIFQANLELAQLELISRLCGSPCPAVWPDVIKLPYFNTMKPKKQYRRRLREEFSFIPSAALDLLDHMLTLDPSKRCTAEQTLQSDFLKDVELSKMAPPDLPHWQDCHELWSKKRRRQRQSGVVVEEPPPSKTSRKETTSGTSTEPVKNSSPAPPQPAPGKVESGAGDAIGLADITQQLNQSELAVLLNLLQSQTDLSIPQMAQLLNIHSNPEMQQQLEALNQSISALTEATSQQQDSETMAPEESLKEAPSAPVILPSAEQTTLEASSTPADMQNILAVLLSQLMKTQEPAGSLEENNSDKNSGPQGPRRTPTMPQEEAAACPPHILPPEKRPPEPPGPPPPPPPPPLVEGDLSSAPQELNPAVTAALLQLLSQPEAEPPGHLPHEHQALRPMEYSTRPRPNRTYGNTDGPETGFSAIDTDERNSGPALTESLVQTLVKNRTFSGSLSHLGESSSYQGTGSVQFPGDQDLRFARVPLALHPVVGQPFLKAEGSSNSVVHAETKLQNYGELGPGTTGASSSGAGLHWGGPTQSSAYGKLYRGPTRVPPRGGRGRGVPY
T1 sequence (O75909 whole entry partner, species assumed): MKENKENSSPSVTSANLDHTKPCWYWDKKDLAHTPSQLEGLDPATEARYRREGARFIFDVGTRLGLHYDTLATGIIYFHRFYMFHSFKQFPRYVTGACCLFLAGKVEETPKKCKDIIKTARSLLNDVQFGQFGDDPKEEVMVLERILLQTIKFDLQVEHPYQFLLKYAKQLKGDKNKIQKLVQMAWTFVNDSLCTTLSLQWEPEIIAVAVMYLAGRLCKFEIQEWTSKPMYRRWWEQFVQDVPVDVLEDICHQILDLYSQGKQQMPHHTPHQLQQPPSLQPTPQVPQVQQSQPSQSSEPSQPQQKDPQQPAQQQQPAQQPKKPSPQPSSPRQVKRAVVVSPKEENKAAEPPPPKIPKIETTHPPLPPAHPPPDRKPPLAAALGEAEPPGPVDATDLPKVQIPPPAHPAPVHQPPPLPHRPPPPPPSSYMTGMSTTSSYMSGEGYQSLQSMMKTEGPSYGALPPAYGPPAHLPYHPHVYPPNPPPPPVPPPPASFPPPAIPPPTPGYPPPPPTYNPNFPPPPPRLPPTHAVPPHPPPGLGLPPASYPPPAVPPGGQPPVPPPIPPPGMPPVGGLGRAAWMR
Protocol: MDA-MB-231 cells were dispensed into a 96-well plate at 100 µL of cell suspension per well using L-15 (Invitrogen) medium containing 10 % FBS, followed by overnight incubation in a cell incubator at 37 °C and 0 % CO2. The next day, each Example compound dissolved in DMSO across 9 concentration ranges and a DMSO control group were treated on the MDA-MB-231 cells at 37 °C and 0 % CO2 for 6 hours. After the compound treatment, the medium in the 96-well plate was removed, and 60 µL of a fixing solution (4.0 % paraformaldehyde in PBS) was added to each well, followed by standing for 20 minutes. After removing the fixing solution and washing with PBS, 60 µL of PBS containing 0.1 % Triton X-100 was dispensed into each well, followed by shaking at room temperature for 15 minutes. After washing with PBS, 100 µL of blocking buffer was added, followed by shaking at room temperature for 1 hour. After removing the blocking buffer, primary antibodies, which are RNA polymerase II subunit B1 phospho-Ser2 (1:500, Cell signaling technology) and RNA polymerase II subunit B1 carboxy-terminal domain (1:200, Cell signaling technology), were added at 60 µL per well and reacted overnight at 4 °C. After adding 150 µL of PBS containing 0.1 % Triton X-100 and washing at least twice by shaking at room temperature for 5 minutes, 60 µL of a secondary antibody was added, followed by shaking at room temperature for 1 hour while blocking light. After adding 150 µL of PBS containing 0.1 % Triton X-100 and washing at least twice by shaking at room temperature for 5 minutes, 150 µL of PBS was added again, followed by washing at least twice by shaking at room temperature for 5 minutes. The plate was scanned using a Li-COR Odyssey machine with the wells filled with PBS. IC50 values were calculated by fitting a dose-response curve using a 4-parameter model of Prism (Graphpad) software.

CDK13 = CDK13 (Homo sapiens, UniProt Q14004); experiment: CDK13 kinase inhibitory activity assay (33P-ATP filter binding); type: biochemical
CDK13, sequence (Q14004 whole entry, species assumed): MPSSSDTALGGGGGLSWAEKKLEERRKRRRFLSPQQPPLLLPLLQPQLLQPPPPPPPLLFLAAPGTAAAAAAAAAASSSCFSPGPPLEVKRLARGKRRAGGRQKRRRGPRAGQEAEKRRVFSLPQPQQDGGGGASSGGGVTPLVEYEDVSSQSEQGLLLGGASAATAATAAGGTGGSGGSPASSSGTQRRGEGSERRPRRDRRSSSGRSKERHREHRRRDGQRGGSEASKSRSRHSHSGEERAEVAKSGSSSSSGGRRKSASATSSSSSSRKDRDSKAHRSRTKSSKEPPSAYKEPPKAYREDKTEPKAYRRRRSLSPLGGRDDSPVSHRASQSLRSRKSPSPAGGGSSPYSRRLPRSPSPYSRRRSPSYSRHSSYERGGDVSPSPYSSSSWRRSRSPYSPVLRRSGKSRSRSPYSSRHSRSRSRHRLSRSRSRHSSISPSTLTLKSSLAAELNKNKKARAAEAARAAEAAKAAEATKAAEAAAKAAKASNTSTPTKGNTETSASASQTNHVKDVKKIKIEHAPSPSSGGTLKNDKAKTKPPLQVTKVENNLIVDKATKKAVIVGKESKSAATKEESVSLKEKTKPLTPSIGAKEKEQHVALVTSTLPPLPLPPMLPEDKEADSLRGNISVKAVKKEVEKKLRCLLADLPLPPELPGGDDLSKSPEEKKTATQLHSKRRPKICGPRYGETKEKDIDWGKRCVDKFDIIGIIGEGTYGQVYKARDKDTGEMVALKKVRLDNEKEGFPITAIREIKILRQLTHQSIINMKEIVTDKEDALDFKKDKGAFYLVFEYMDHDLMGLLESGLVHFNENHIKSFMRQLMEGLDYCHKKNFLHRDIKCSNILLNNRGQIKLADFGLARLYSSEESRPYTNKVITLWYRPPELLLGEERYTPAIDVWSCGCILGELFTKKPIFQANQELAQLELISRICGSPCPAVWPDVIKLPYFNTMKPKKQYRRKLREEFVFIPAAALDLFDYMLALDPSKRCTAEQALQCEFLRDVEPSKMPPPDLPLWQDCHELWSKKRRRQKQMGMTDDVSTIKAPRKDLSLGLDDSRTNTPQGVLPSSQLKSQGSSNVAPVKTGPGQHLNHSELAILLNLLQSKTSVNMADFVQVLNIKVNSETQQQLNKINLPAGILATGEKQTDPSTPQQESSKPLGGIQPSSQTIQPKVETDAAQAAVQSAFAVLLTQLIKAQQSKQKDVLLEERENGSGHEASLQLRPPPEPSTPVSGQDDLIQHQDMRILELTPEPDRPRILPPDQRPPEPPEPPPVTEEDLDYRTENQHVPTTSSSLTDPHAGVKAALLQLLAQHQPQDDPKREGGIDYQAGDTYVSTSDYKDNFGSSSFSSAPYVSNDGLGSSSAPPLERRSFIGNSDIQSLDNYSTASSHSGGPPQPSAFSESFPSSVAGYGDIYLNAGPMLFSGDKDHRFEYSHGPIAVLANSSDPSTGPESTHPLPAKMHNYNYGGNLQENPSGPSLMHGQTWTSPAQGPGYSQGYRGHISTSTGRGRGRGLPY
CDK13, sequence (O75909 whole entry partner, species assumed): as the sequence (O75909 whole entry partner, species assumed) above
Protocol: (§1) Before initiating the CDK12 and CDK13 kinase reactions, each Example compound was dissolved and diluted in DMSO as a solvent across 9 concentration ranges at room temperature. The diluted solutions were then incubated with a mixture of kinase and substrate (and cofactors, if required) for 20 minutes. Next, radioisotope-labeled ATP (^33P-gamma-ATP) was added to proceed with the kinase reaction at room temperature for 120 minutes. After the reaction was completed, the reaction mixture was transferred to a filter paper that binds the radioisotope-labeled catalytic product (^33P-substrate). Unreacted ^33P-ATP was removed by washing with 0.75 % phosphoric acid, and then the radioactive phosphorylated substrate remaining on the filter paper was measured. Kinase activity data were expressed as a percentage of the kinase activity remaining in the test sample compared to a DMSO control group. The half-maximal inhibitory concentration (IC50) for each kinase was calculated using Prism (Graphpad) software.

[2] = test system: MDA-MB-231 breast cancer cells; experiment: Proliferation inhibitory activity assay against MDA-MB-231 breast cancer cells; type: cell-based; settings: Homo sapiens, 72 hours, CellTiter Glo, relative IC50
Protocol: Experiments were performed using the MDA-MB-231 breast cancer cell line to measure the cell proliferation inhibitory ability of each Example compound. MDA-MB-231 cells were dispensed into a 96-well plate at 100 µL of cell suspension per well using L-15 (Invitrogen) medium containing 10 % FBS, followed by incubation in a cell incubator at 37 °C and 0 % CO2. The next day, each Example compound dissolved and diluted in DMSO across 9 concentration ranges and a DMSO control group were treated on the cells for 72 hours. After the compound treatment was completed, 100 µL of CellTiter Glo (Promega) reagent was added to each well of the 96-well plate, followed by shaking for 10 minutes and standing at room temperature for 10 minutes. Luminescence signals were measured after inserting the 96-well plate into an Envision plate reader (PerkinElmer). Relative IC50 values were calculated by fitting a dose-response curve using XLfit (IDBS Ltd) software.
The breast cancer cell proliferation inhibitory activities of the Example compounds measured by the above method were evaluated according to the following criteria, and the results are presented in Table 13.

CDK12 [3] = biological target: T1, CDK12; experiment: CDK12 kinase inhibitory activity assay (33P-ATP filter binding); type: biochemical
Protocol: as §1

[4] = kinase reaction 120 minutes, 33P-gamma-ATP, read-out: CDK13 IC50
[5] = kinase reaction 120 minutes, 33P-gamma-ATP, read-out: CDK12 IC50

| Compound | pIC50 (CDK12 [1]) | pIC50 (CDK13; [4]) | pIC50 [2] | pIC50 (CDK12 [3]) | pIC50 (CDK12 [3]; [5]) | pIC50 (CDK13) |
| --- | --- | --- | --- | --- | --- | --- |
| CC1(O)CC2CCC(C1)N2c1cc(NCc2nc3cc(Cl)c(Cl)cc3[nH]2)c2ncc(C(F)(F)F)n2n1 (stereo not shown) [Example 34] | > 6.52 | 6.30 to 7.00 | 6.30 to 7.30 | < 6.30 |  |  |
| NC1CN(c2cc(NCc3nc4cc(Cl)c(Cl)cc4[nH]3)c3ncc(C(F)(F)F)n3n2)C1 [Example 36] | > 6.52 | > 7.00 | ≥ 7.30 |  | > 7.00 |  |
| N[C@@H]1CCN(c2cc(NCc3nc4ccc(F)c(F)c4[nH]3)c3ncc(C(F)(F)F)n3n2)C1 [Example 37] | > 6.52 | > 7.00 | ≥ 7.30 |  | > 7.00 |  |
| N[C@H]1CCN(c2cc(NCc3nc4ccc(F)c(F)c4[nH]3)c3ncc(C(F)(F)F)n3n2)C1 [Example 38] | > 6.52 | > 7.00 | ≥ 7.30 |  | > 7.00 |  |
| C[C@@H]1CN(c2cc(NCc3nc4cc(Cl)c(Cl)cc4[nH]3)c3ncc(C(F)(F)F)n3n2)C[C@H](C)N1 [Example 39, N-((5,6-dichloro-1H-benzo[d]imidazol-2-yl)methyl)-6-((3S,5R)-3,5-dimethylpiperazin-1-yl)-3-(trifluoromethyl)imidazo[1,2-b]pyridazin-8-amine] | > 6.52 | > 7.00 | ≥ 7.30 |  | > 7.00 |  |
| FC(F)(F)c1cnc2c(NCc3nc4cc(Cl)c(Cl)cc4[nH]3)cc(N3CC4CCC3CO4)nn12 (stereo not shown) [Example 43, 6-(2-oxa-5-azabicyclo[2.2.2]octan-5-yl)-N-((5,6-dichloro-1H-benzo[d]imidazol-2-yl)methyl)-3-(trifluoromethyl)imidazo[1,2-b]pyridazin-8-amine] | 5.52 to 6.52 | 6.30 to 7.00 | 6.30 to 7.30 |  | 6.30 to 7.00 |  |
| FC(F)(F)c1cnc2c(NCc3nc4cc(Cl)c(Cl)cc4[nH]3)cc(N3CC4(CNC4)C3)nn12 [Example 45, N-((5,6-dichloro-1H-benzo[d]imidazol-2-yl)methyl)-6-(2,6-diazaspiro[3.3]heptan-2-yl)-3-(trifluoromethyl)imidazo[1,2-b]pyridazin-8-amine] | > 6.52 | > 7.00 | ≥ 7.30 |  | 6.30 to 7.00 |  |
| OC1CC2(C1)CN(c1cc(NCc3nc4cc(Cl)c(Cl)cc4[nH]3)c3ncc(C(F)(F)F)n3n1)C2 [Example 47, 2-(8-(((5,6-dichloro-1H-benzo[d]imidazol-2-yl)methyl)amino)-3-(trifluoromethyl)imidazo[1,2-b]pyridazin-6-yl)-2-azaspiro[3.3]heptan-6-ol] | > 6.52 | > 7.00 | ≥ 7.30 |  | 6.30 to 7.00 |  |
| CC(C)(O)C1CN(c2cc(NCc3nc4cc(Cl)c(Cl)cc4[nH]3)c3ncc(C(F)(F)F)n3n2)C1 [Example 48, 2-(1-(8-(((5,6-dichloro-1H-benzo[d]imidazol-2-yl)methyl)amino)-3-(trifluoromethyl)imidazo[1,2-b]pyridazin-6-yl)azetidin-3-yl)propan-2-ol] | > 6.52 | 6.30 to 7.00 | 6.30 to 7.30 |  | < 6.30 |  |
| N#CC1CCN(c2cc(NCc3nc4cc(Cl)c(Cl)cc4[nH]3)c3ncc(C(F)(F)F)n3n2)C1 (stereo not shown) [Example 49, 1-(8-(((5,6-dichloro-1H-benzo[d]imidazol-2-yl)methyl)amino)-3-(trifluoromethyl)imidazo[1,2-b]pyridazin-6-yl)pyrrolidine-3-carbonitrile] | > 6.52 | > 7.00 | ≥ 7.30 |  | > 7.00 |  |
| OC1(C2CN(c3cc(NCc4nc5cc(Cl)c(Cl)cc5[nH]4)c4ncc(C(F)(F)F)n4n3)C2)CC1 [Example 50, 1-(1-(8-(((5,6-dichloro-1H-benzo[d]imidazol-2-yl)methyl)amino)-3-(trifluoromethyl)imidazo[1,2-b]pyridazin-6-yl)azetidin-3-yl)cyclopropan-1-ol] | 5.52 to 6.52 | 6.30 to 7.00 | 6.30 to 7.30 |  | 6.30 to 7.00 |  |
| CC(=O)N1CCN(c2cc(NCc3nc4cc(Cl)c(Cl)cc4[nH]3)c3ncc(C(F)(F)F)n3n2)CC1 [Example 51, 1-(4-(8-(((5,6-dichloro-1H-benzo[d]imidazol-2-yl)methyl)amino)-3-(trifluoromethyl)imidazo[1,2-b]pyridazin-6-yl)piperazin-1-yl)ethan-1-one] | > 6.52 | > 7.00 | ≥ 7.30 |  | > 7.00 |  |
| CC1(O)CN(c2cc(NCc3nc4cc(Cl)c(Cl)cc4[nH]3)c3ncc(C(F)(F)F)n3n2)C1 [Example 52, 1-(8-(((5,6-dichloro-1H-benzo[d]imidazol-2-yl)methyl)amino)-3-(trifluoromethyl)imidazo[1,2-b]pyridazin-6-yl)-3-methylazetidin-3-ol] | > 6.52 | > 7.00 | ≥ 7.30 |  | 6.30 to 7.00 |  |
| CC1(O)CCN(c2cc(NCc3nc4cc(Cl)c(Cl)cc4[nH]3)c3ncc(C(F)(F)F)n3n2)CC1 [Example 53, 1-(8-(((5,6-dichloro-1H-benzo[d]imidazol-2-yl)methyl)amino)-3-(trifluoromethyl)imidazo[1,2-b]pyridazin-6-yl)-4-methylpiperidin-4-ol] | > 6.52 | 6.30 to 7.00 | ≥ 7.30 |  | 6.30 to 7.00 |  |
| N#CC1CN(c2cc(NCc3nc4ccc(Cl)c(Cl)c4[nH]3)c3ncc(C(F)(F)F)n3n2)C1 [Example 55, 1-(8-(((6,7-dichloro-1H-benzo[d]imidazol-2-yl)methyl)amino)-3-(trifluoromethyl)imidazo[1,2-b]pyridazin-6-yl)azetidine-3-carbonitrile] | 5.52 to 6.52 | > 7.00 | 6.30 to 7.30 |  | > 7.00 |  |
| N#CC1CCN(c2cc(NCc3nc4ccc(F)c(F)c4[nH]3)c3ncc(C(F)(F)F)n3n2)CC1 [Example 56, 1-(8-(((6,7-difluoro-1H-benzo[d]imidazol-2-yl)methyl)amino)-3-(trifluoromethyl)imidazo[1,2-b]pyridazin-6-yl)piperidine-4-carbonitrile] | 5.52 to 6.52 | > 7.00 | ≥ 7.30 |  | > 7.00 |  |
| FC(F)(F)c1cnc2c(NCc3nc4cc(Cl)c(Cl)cc4[nH]3)cc(N3CCNCC3)nn12 [Example 57, N-((5,6-dichloro-1H-benzo[d]imidazol-2-yl)methyl)-6-(piperazin-1-yl)-3-(trifluoromethyl)imidazo[1,2-b]pyridazin-8-amine] | > 6.52 | > 7.00 | ≥ 7.30 |  | > 7.00 |  |
| FC(F)(F)c1cnc2c(NCc3nc4cc(Cl)c(Cl)cc4[nH]3)cc(N3CC(NC4CC4)C3)nn12 [Example 58, 6-(3-(cyclopropylamino)azetidin-1-yl)-N-((5,6-dichloro-1H-benzo[d]imidazol-2-yl)methyl)-3-(trifluoromethyl)imidazo[1,2-b]pyridazin-8-amine] | > 6.52 | 6.30 to 7.00 | ≥ 7.30 |  | < 6.30 |  |
| N#CC1(O)CN(c2cc(NCc3nc4cc(Cl)c(Cl)cc4[nH]3)c3ncc(C(F)(F)F)n3n2)C1 [Example 59, 1-(8-(((5,6-dichloro-1H-benzo[d]imidazol-2-yl)methyl)amino)-3-(trifluoromethyl)imidazo[1,2-b]pyridazin-6-yl)-3-hydroxyazetidine-3-carbonitrile] | > 6.52 |  | ≥ 7.30 |  | 6.30 to 7.00 | 6.30 to 7.00 |
